Two compounds from US11154858B2, “Microfluidic tissue development systems” (University of Pittsburgh—Of the Commonwealth System of …, priority 2015, dated 2021) can be followed below.

The subject of data set [1] is chondrocytes in the cartilage chamber. The experiment in a line: RT-PCR marker expression, chondrocyte response in cartilage (top) chamber of the bioreactor. The class given is cell-based. Particulars: weeks 3 and 4 (1 nM estradiol + 10 nM progesterone; 0.1 nM estradiol + 50 nM progesterone). How it is done:
FIGS. 17-20 are graphs that show differential expression of markers (as determined by RT-PCR) for a control medium that contained no estrogen or progesterone (first bar), and then different concentrations of hormones supplied to one or the other of the bioreactor chambers during week 1 (w1: 0.1 nM estradiol), week 2 (w2: 1 nM estradiol), week 3 (w3: 1 nM estradiol and 10 nM progesterone), and week 4 (w4: 0.1 nM estradiol and 50 nM progesterone). […] FIGS. 17-18 show differential expression of markers (as determined by RT-PCR) for a control medium that contained no estrogen or progesterone (first bar), and then different concentrations of hormones supplied to the chambers during week 1 (w1: 0.1 nM estradiol), week 2 (w2: 1 nM estradiol), week 3 (w3: 1 nM estradiol and 10 nM progesterone), and week 4 (w4: 0.1 nM estradiol and 50 nM progesterone).

For data set [2] the following is noted: not told.
Text: The porosity and permeability of the latter have been estimated via Boyle's pycnometer and scanning electron microscopy (SEM) analysis.

For `CC(=O)[C@H]1CC[C@H]2[C@@H]3CCC4=CC(=O)CC[C@]4(C)[C@H]3CC[C@]12C` [progesterone], the “expression of cartilage anabolic markers, progesterone progressively added” value in data set [1] was “downregulation is still present”.
In data set [2], poly-L-lactate [PLLA scaffold] displayed a Permeability of 3.234e−09 m^2.
